Legend:
[1] = system: spinal cord-dorsal root ganglia (SC-DRG) slices; assay: nerve fiber sprouting from SC-DRG co-cultures; format: cell-based, rat; details: calcium preparation at Ca2+ 2 mM; after 4 days of cultivation; portion of explants (out of 6)
Description: Neural and Vascular Reconstruction Gel ([…] Labs proprietary) is composed of two main components: high molecular hyaluronic acid (HA, 3×10^6 Da, BTG, Israel) and laminin (Sigma). […] The gel has the texture of a viscous liquid, it adheres easily and successfully the embedded cells or explants to the plastic or glass substratum, and enabled nerve fiber outgrowth in a 3D pattern. All the experiments were carried out and authorized by the local ethics committee recognized by the Israeli authorities for animal experimentation. Stationary organotypic cultures of dorsal root ganglia (DRG) and spinal cord (SC) as well as cultures of dissociated brain cells were prepared from rat fetuses (15 days of gestation, Lewis inbred, Harlan, Israel). Immediately after dissection, the isolated tissues were cut with a […] tissue chopper into small slices (of 400 μm thickness). In these studies, two tissue culture strategies were used. […] In the second method, the tissue slices were further dissociated with a trypsin-EDTA solution for 30 min, and washed with a culture medium. Subsequently, the dissociated cells were added to a suspension of chitosan powder or gastrolith powder (micro carriers, MCs) and incubated in suspension at 37° C. for 4 days. […] Calcium source were as following: ACC-Etidronic Acid (ACC-ET) (fresh suspension); ACC-Phosphoserine (ACC-PS) (fresh suspension); Gastrolith (dissolved with 0.1 M HCl and then neutralized with NaOH 1M); gastrolith powder; […] The cultures were monitored by daily phase contrast microscopic observations starting from 24 hours after setting the cultures onward. Suspensions of fresh ACC preparations consisted of particles forming a stable suspension. The gastrolith is a natural ACC isolated from crabs, and can be purchased only as a dry powder. In this form, its other characteristic components (such as calcium ions and proteins) are not available to the cells. In order to increase their bioavailability, the gastrolith powder was dissolved in 0.1 M HCl (which mimics the acidity which exists in the stomach) and then neutralized with 1M NaOH. […] The specimens were then incubated with rabbit anti-neurofilament antibodies (NF, Novus Biologicals, 1:500) to visualize the neurite outgrowth. […] Finally, the samples were rinsed again with wash buffer, and mounted with mounting medium (Immco Diagnostic, USA).

[2] = system: healthy skeletal muscle cultures; assay: myotube formation and contraction in healthy skeletal muscle cultures; format: cell-based, rat; details: added at 1 mM (final Ca2+ 2 mM)
Description: Stationary skeletal muscle cultures were prepared from healthy 1 day new born rat (Sprague Dawley, Harlan, Israel). The muscle tissue was dissected from posterior legs and was thoroughly minced. Digestion was performed with Trypsin-EDTA while gentle trituration. After 30 min the supernatant, containing dissociated cells, was collected and a fresh Trypsin-EDTA was added. This procedure was repeated two more times. Then, all supernatants were pooled, centrifuged, and the cell pellet was re-suspended in Proliferation Medium. Cells were seeded in a Gelatin coated 12 wells culture plates, 1×10^5 cells/well containing 1 mL of Proliferation Medium. Two days later, the medium was changed to Fusion Medium, which was then changed twice a week. The cultures were monitored by daily phase contrast microscopic observations from 24 hours after setting the cultures and onward.
Stock solution of 1% porcine gelatin in water, was sterilized by autoclave. Once cooled, 500 μl of the solution were added to each well of the 12-wells culture plat. After incubation for 20 min at room temperature, the excess solution was removed, and the cells were seeded.
For the proliferation stage, cells were cultured in: DMEM/F12 (containing 1 mM Ca^2+) +10% FBS, 25 μg/mL Gentamycin, and 2 mM L-Glutamine.
For the fusion stage the Proliferation Medium was changed with Fusion Medium, which was prepared as following: DMEM/F12 (containing 1 mM Ca2+), 2% horse serum (HS), 2 mM L-Glutamine, 25 μg/mL Gentamycin, and 4 units/100 mL Insulin (all purchased from Biological-Industries, Israel).
Control cultures were grown without further added calcium, or cultures enriched with free (soluble) stabilizer. The experiment was blinded by marking the various calcium preparations with arbitrary numerals only.
The components were added in one of the following ways: (i) aqueous suspensions of dry material; (ii) aqueous suspension of fresh material (before drying), or (iii) dissolved with HCl (to mimic the acidity which exists in the stomach. After dissolving was accomplished, the formed solutions were neutralized with 1M NaOH).

mdx cell line = assay: myotube formation, CK activity and contraction in mdx cell line; format: cell-based, mice; details: final Ca2+ 2 mM in Fusion Medium
Description: Cells from the Mdx cell line were seeded in a Gelatin coated 12 wells culture plate, 3×10^4 cells/well containing 1 mL of Proliferation Medium. Two days later (˜66% confluence), the medium was changed to Fusion Medium which was changed twice a week. The various calcium preparations were separately added to the Fusion Medium according to the treatment described in Table 3. Cultures were enriched with the various calcium preparations, at Ca^2+ concentration of 1 mM. Since the medium already contained 1 mM of calcium ions, then the final concentration of Ca2+ was of 2 mM.
The effects of the tested calcium preparations on cell proliferation, fusion to form myotubes and muscle contraction were monitored by daily phase contrast microscopic observation. At predetermined days, cultures were fixed in methanol for 20 minutes and then stained with Giemsa in order to evaluate the number of myotubes formed with time in cultures.
At predetermined days, cells were collected from culture wells (using a rubber policeman) and kept in 1 mL PBS (without Ca^2+) at −70° C. until analyzed. For CK measurement cell samples were thawed and physically lysed using a sonicator, to release the CK from muscle myotubes. CK concentration was determined using Creatine Kinase Activity Assay Kit (CK-NAC REAGENT SET, CURTISS, CHEM-INDEX INC, Hialeah, FL, USA).

Compound: [Ca+2].[Cl-].[Cl-] [CaCl2, calcium chloride]
- Cultures with axonal regeneration (%) [1]: 50%
- muscle fibers after 7 days [2]: fewer, thinner and shorter muscle fibers
- early formation of many myotubes, time of cultivation ([2]; dry powder suspended in water): later
- muscle contractions observed, day after seeding (mdx cell line): ≥ 10 days
